Data published in US20080004253A1, “Thiazolopyrimidine modulators of TRPV1” (priority 2006, published 2008).

Columns and labels:
[1] = target: T1, rat TRPV1 (Rattus norvegicus, UniProt O35433); assay: Functional assay: block of capsaicin-induced Ca2+ influx, rat assay (rTRPV1/HEK293, FLIPR); assay type: cell-based; conditions: rTRPV1/HEK293 cells, capsaicin challenge, Fluo-3 fluorescence; mean; > value = solubility limit in assay medium
T1 construct: expressed in transfected cells; host or cells: HEK293 (rTRPV1/HEK293), geneticin selection
Procedure, shortened: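 Compounds, as free base or TFA salt, tested from 10 μM in three-fold steps on rTRPV1-transfected HEK293 cells, with 30 min preincubation in low-calcium (20 μM) buffer. Capsaicin-evoked Ca2+ influx measured by FLIPR fluo3 signal before and 100 s after addition. Averaged IC50 from non-linear fits.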

[2] = target: T2, human TRPV1 (Homo sapiens, UniProt Q8NER1); assay: Functional assay: block of capsaicin-induced Ca2+ influx, human assay (hTRPV1/HEK293, FLIPR); assay type: cell-based; conditions: hTRPV1/HEK293 cells, 150 nM capsaicin challenge, Fluo-3 fluorescence; mean; > value = solubility limit in assay medium
T2 construct: expressed in transfected cells; host or cells: HEK293 (hTRPV1/HEK293), zeocin selection
Procedure, shortened: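 HEK293 cells stably expressing human TRPV1, fluo3-loaded, preincubated 30 min with compound (serial 3-fold dilutions from 10 μM, duplicate) in 20 μM Ca2+ buffer. Capsaicin response taken as fluo3 fluorescence change before vs 100 s after agonist; IC50 by non-linear regression, mean values; free base or TFA salt.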

T2 sequence (Q8NER1 whole entry): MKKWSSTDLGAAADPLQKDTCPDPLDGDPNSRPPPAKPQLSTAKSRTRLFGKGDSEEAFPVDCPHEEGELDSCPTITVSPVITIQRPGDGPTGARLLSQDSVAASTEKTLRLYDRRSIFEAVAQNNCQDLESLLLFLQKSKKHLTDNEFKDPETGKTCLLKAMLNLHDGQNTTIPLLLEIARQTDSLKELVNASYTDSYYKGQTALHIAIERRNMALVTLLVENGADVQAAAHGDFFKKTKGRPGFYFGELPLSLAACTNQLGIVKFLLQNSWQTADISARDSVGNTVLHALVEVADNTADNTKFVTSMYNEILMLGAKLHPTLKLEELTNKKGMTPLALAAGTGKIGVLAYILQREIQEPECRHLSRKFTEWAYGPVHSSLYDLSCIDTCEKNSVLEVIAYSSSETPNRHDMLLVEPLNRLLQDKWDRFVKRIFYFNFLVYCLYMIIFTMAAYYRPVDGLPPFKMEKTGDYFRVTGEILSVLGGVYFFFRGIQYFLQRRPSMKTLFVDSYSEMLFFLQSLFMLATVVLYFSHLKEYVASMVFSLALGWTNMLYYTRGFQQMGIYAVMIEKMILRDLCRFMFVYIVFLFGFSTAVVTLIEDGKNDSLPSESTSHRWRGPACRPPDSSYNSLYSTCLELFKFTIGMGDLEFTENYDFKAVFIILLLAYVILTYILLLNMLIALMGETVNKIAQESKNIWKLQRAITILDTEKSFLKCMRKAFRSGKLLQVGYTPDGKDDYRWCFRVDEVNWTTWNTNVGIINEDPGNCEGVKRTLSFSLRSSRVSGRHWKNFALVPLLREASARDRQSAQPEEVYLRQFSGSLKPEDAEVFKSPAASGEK
T1 sequence (O35433 whole entry): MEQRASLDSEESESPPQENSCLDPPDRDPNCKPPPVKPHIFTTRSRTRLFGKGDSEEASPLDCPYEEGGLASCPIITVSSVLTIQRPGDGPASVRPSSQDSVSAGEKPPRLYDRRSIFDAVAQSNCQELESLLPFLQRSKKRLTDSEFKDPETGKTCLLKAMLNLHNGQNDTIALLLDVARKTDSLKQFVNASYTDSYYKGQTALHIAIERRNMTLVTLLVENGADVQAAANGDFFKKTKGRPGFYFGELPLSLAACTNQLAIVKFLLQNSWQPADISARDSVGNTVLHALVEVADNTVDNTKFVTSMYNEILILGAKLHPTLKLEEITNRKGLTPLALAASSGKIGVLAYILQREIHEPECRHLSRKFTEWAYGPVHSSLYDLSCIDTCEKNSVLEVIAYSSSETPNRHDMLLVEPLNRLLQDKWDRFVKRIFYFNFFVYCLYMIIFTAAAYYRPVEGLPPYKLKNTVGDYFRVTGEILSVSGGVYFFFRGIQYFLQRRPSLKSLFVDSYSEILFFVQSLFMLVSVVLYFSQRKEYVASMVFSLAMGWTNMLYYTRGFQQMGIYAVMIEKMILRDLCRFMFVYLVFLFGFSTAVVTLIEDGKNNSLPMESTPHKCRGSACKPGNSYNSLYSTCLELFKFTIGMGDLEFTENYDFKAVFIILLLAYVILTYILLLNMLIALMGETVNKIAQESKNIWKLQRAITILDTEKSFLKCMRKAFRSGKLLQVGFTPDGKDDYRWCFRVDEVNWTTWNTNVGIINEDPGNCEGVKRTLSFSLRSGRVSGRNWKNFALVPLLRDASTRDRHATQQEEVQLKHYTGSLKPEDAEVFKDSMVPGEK

Structure (SMILES)	IC50 [1]	IC50 [2]
CCN(CC)c1nc(Nc2ccc(C(F)(F)F)cc2)c2nc(Nc3c(Cl)cccc3Cl)sc2n1 [Example 188, N^2-(2,6-Dichloro-phenyl)-N^5,N^5-diethyl-N^7-(4-trifluoromethyl-phenyl)-thiazolo[5,4-d]pyrimidine-2,5,7-triamine]	40 nM	36 nM
Cc1cccc(C)c1Nc1nc2c(Nc3ccc(C#N)c(C(F)(F)F)c3)ncnc2s1 [Example 149, 4-[2-(2,6-Dimethyl-phenylamino)-thiazolo[5,4-d]pyrimidin-7-ylamino]-2-trifluoromethyl-benzonitrile]	257 nM	737 nM
COC(=O)c1ccc(Nc2ncnc3sc(Nc4c(C)cccc4C)nc23)cc1 [Example 37, 4-[2-(2,6-Dimethyl-phenylamino)-thiazolo[5,4-d]pyrimidin-7-ylamino]-benzoic acid methyl ester]	38 nM	134 nM
FC(F)(F)c1ccc(Nc2ncnc3sc(NC4CCCCC4)nc23)cc1 [Example 232, N^2-Cyclohexyl-N^7-[4-(trifluoromethyl)phenyl][1,3]thiazolo[5,4-d]pyrimidine-2,7-diamine]	3190 nM	> 6670 nM
Cc1ccc(Nc2ncnc3sc(Nc4c(C)cccc4C)nc23)cc1C [Example 165, N^2-(2,6-Dimethyl-phenyl)-N^7-(3,4-dimethyl-phenyl)-thiazolo[5,4-d]pyrimidine-2,7-diamine]	> 6670 nM	> 6670 nM
Cc1nc(Nc2ccccc2)c2nc(Nc3c(Cl)cccc3Cl)sc2n1 [Example 170, N^2-(2,6-Dichloro-phenyl)-5-methyl-N^7-phenyl-thiazolo[5,4-d]pyrimidine-2,7-diamine]	> 20000 nM	> 20000 nM
CC(C)OC(=O)C(C)(C)c1ccc(Nc2ncnc3sc(Nc4c(Cl)cccc4Cl)nc23)cc1 [Example 231, 1-Methylethyl 2-[4-({2-[(2,6-dichlorophenyl)amino][1,3]thiazolo[5,4-d]pyrimidin-7-yl}amino)phenyl]-2-methylpropanoate]	81 nM	698 nM
CC(CO)Nc1nc(Nc2ccc(C(F)(F)F)cc2)c2nc(Nc3c(Cl)cccc3Cl)sc2n1 (racemic) [Example 186, (racemic)-2-[2-(2,6-Dichloro-phenylamino)-7-(4-trifluoromethyl-phenylamino)-thiazolo[5,4-d]pyrimidin-5-ylamino]-propan-1-ol]	666 nM	642 nM
Cc1nc(Nc2ccc(C(=O)N(C)C)cc2)c2nc(Nc3c(Cl)cccc3Cl)sc2n1 [Example 157, 4-[2-(2,6-Dichloro-phenylamino)-5-methyl-thiazolo[5,4-d]pyrimidin-7-ylamino]-N,N-dimethyl-benzamide]	1210 nM	1920 nM
CN1CCN(CCCNc2nc(Nc3ccc(C(F)(F)F)cc3)c3nc(Nc4c(Cl)cccc4Cl)sc3n2)CC1 [Example 153, N^2-(2,6-Dichloro-phenyl)-N^5-[3-(4-methyl-piperazin-1-yl)-propyl]-N^7-(4-trifluoromethyl-phenyl)-thiazolo[5,4-d]pyrimidine-2,5,7-diamine]	440 nM	1420 nM
Cc1nc(Nc2ccc(S(=O)(=O)N(C)C)cc2)c2nc(Nc3ncccc3C)sc2n1 [Example 212, N,N-Dimethyl-4-[5-methyl-2-(3-methyl-pyridin-2-ylamino)-thiazolo[5,4-d]pyrimidin-7-ylamino]-benzenesulfonamide]	≥ 6670 nM	≥ 6670 nM
COC(=O)c1scc(C)c1Nc1nc2c(Nc3ccc(C(F)(F)F)nc3)ncnc2s1 [Example 49, 4-Methyl-3-[7-(6-trifluoromethyl-pyridin-3-ylamino)-thiazolo[5,4-d]pyrimidin-2-ylamino]-thiophene-2-carboxylic acid methyl ester]	431 nM	375 nM
FC(F)(F)c1ccc(Nc2ncnc3sc(Nc4ccccc4)nc23)cc1 [Example 20, N^2-Phenyl-N^7-(4-trifluoromethyl-phenyl)-thiazolo[5,4-d]pyrimidine-2,7-diamine]	2680 nM	> 6670 nM
O=S(=O)(c1ccc(Nc2ncnc3sc(Nc4c(Cl)cncc4Cl)nc23)cc1)N1CCCC1 [Example 214, N^2-(3,5-Dichloro-pyridin-4-yl)-N^7-[4-(pyrrolidine-1-sulfonyl)-phenyl]thiazolo[5,4-d]pyrimidine-2,7-diamine]	240 nM	907 nM
Cc1noc(C)c1Nc1nc2c(Nc3ccc(C(F)(F)F)c(Cl)c3)ncnc2s1 [Example 50, N^7-(3-Chloro-4-trifluoromethyl-phenyl)-N^2-(3,5-dimethyl-isoxazol-4-yl)thiazolo[5,4d]pyrimidine-2,7-diamine]	> 6670 nM	> 6670 nM
FC(F)(F)c1ccc(Nc2ncnc3sc(Nc4ccccc4C(F)(F)F)nc23)cn1 [Example 219, N^2-[2-(Trifluoromethyl)phenyl]-N^7-[6-(trifluoromethyl)pyridin-3-yl][1,3]thiazolo[5,4-d]pyrimidine-2,7-diamine]	76 nM	104 nM
N#Cc1cc(Cl)c(Nc2nc3c(Nc4ccc(C(F)(F)F)cc4)ncnc3s2)c(Cl)c1 [Example 234, 3,5-Dichloro-4-[7-(4-trifluoromethyl-phenylamino)-thiazolo[5,4-d]pyrimidin-2-ylamino]-benzonitrile]	68 nM	140 nM
Cc1nc(Nc2ccc(C(F)(F)F)cc2)c2nc(Nc3ccccc3Cl)sc2n1 [Example 202, N^2-(2-Chloro-phenyl)-5-methyl-N^7-(4-trifluoromethyl-phenyl)-thiazolo[5,4-d]pyrimidine-2,7-diamine]	58 nM	57 nM

The remaining compounds from weak to strong by IC50 [1], led by results:

IC50 [1]	IC50 [2]	Structure (SMILES)
38 nM	115 nM	CS(=O)(=O)c1ccc(Nc2ncnc3sc(Nc4c(Cl)cc(C#N)cc4Cl)nc23)cc1 [Example 236, 3,5-Dichloro-4-[7-(4-methanesulfonyl-phenylamino)-thiazolo[5,4-d]pyrimidin-2-ylamino]-benzonitrile]
36 nM	35 nM	COC[C@@H]1CCCN1c1nc(Nc2ccc(C(F)(F)F)cc2)c2nc(Nc3c(Cl)cccc3Cl)sc2n1 [Example 193, (2S)-N^2-(2,6-Dichloro-phenyl)-5-(2-methoxymethyl-pyrrolidin-1-yl)-N^7-(4-trifluoromethyl-phenyl)-thiazolo[5,4-d]pyrimidine-2,7-diamine]
33 nM	40 nM	Cc1cccc(C)c1Nc1nc2c(Nc3ccc(C#N)cc3)ncnc2s1 [Example 31, 4-[2-(2,6-Dimethyl-phenylamino)-thiazolo[5,4-d]pyrimidin-7-ylamino]-benzonitrile]
19 nM	63 nM	C[C@H]1COCCN1c1nc(Nc2ccc(C(F)(F)F)cc2)c2nc(Nc3c(Cl)cccc3Cl)sc2n1 [Example 192, (3S)-N^2-(2,6-Dichloro-phenyl)-5-(3-methyl-morpholin-4-yl)-N^7-(4-trifluoromethyl-phenyl)-thiazolo[5,4-d]pyrimidine-2,7-diamine]
17 nM	41 nM	FC(F)(F)c1ccc(Nc2nc(N3CCOCC3)nc3sc(Nc4c(Cl)cccc4Cl)nc23)cc1 [Example 64, N^2-(2,6-Dichloro-phenyl)-5-morpholin-4-yl-N^7-(4-trifluoromethyl-phenyl)-thiazolo[5,4-d]pyrimidine-2,7-diamine]
14 nM	26 nM	Cc1cccc(C)c1Nc1nc2c(Nc3ccc(C(F)(F)F)c(F)c3)ncnc2s1 [Example 108, N^2-(2,6-Dimethyl-phenyl)-N^7-(3-fluoro-4-trifluoromethyl-phenyl)-thiazolo[5,4-d]pyrimidine-2,7-diamine]
7 nM	23 nM	Cc1cccc(C)c1Nc1nc2c(Nc3ccc(C(F)(F)F)nc3)ncnc2s1 [Example 11, N^2-(2,6-Dimethyl-phenyl)-N^7-(6-trifluoromethyl-pyridin-3-yl)-thiazolo[5,4-d]pyrimidine-2,7-diamine]
2 nM	8 nM	Cc1nc(Nc2ccc(S(=O)(=O)N3CCCC3)cc2)c2nc(Nc3c(C)cccc3C)sc2n1 [Example 92, N^2-(2,6-Dimethyl-phenyl)-5-methyl-N^7-[4-(pyrrolidine-1-sulfonyl)-phenyl]-thiazolo[5,4-d]pyrimidine-2,7-diamine]
1 nM	5 nM	Cc1nc(Nc2ccc(C(C)(C)C)cc2)c2nc(Nc3c(Cl)cccc3Cl)sc2n1 [Example 7, N^7-(4-tert-Butyl-phenyl)-N^2-(2,6-dichloro-phenyl)-5-methyl-thiazolo[5,4-d]pyrimidine-2,7-diamine]
1 nM	2 nM	Cc1nc(Nc2ccc(S(C)(=O)=O)cc2)c2nc(Nc3c(Cl)cccc3Cl)sc2n1 [Example 78, N^2-(2,6-Dichloro-phenyl)-N^7-(4-methanesulfonyl-phenyl)-5-methyl-thiazolo[5,4-d]pyrimidine-2,7-diamine]
1 nM	1 nM	Cc1nc(Nc2ccc(S(=O)(=O)N3CCCC3)cc2)c2nc(Nc3c(Cl)cccc3Cl)sc2n1 [Example 73, N^2-(2,6-Dichloro-phenyl)-5-methyl-N^7-[4-(pyrrolidine-1-sulfonyl)-phenyl]-thiazolo[5,4-d]pyrimidine-2,7-diamine]
0.7 nM	3.3 nM	C[C@@H](O)CNc1nc(Nc2ccc(C(F)(F)F)cc2)c2nc(Nc3c(Cl)cccc3Cl)sc2n1 [Example 250, (R)-1-[2-(2,6-Dichloro-phenylamino)-7-(4-trifluoromethyl-phenylamino)-thiazolo[5,4-d]pyrimidin-5-ylamino]-propan-2-ol]
